Tests used:
[1] = molecular target: T1, Multidrug resistance-associated protein 1 (Homo sapiens, UniProt P33527); test: TP_TRANSPORTER: increase in Calcein intracellular accumulation (Calcein: 0.5 uM, Rifampicin: 200 uM) in GLC4/ADR cells; format: functional, cell-based; details: glc-4/adr
[2] = molecular target: T1, Multidrug resistance-associated protein 1; test: TP_TRANSPORTER: increase in Calcein intracellular accumulation (Calcein: 0.5 uM, Rifamycin SV: 200 uM) in GLC4/ADR cells; format: functional, cell-based; details: glc-4/adr

T1 sequence (P33527 whole entry): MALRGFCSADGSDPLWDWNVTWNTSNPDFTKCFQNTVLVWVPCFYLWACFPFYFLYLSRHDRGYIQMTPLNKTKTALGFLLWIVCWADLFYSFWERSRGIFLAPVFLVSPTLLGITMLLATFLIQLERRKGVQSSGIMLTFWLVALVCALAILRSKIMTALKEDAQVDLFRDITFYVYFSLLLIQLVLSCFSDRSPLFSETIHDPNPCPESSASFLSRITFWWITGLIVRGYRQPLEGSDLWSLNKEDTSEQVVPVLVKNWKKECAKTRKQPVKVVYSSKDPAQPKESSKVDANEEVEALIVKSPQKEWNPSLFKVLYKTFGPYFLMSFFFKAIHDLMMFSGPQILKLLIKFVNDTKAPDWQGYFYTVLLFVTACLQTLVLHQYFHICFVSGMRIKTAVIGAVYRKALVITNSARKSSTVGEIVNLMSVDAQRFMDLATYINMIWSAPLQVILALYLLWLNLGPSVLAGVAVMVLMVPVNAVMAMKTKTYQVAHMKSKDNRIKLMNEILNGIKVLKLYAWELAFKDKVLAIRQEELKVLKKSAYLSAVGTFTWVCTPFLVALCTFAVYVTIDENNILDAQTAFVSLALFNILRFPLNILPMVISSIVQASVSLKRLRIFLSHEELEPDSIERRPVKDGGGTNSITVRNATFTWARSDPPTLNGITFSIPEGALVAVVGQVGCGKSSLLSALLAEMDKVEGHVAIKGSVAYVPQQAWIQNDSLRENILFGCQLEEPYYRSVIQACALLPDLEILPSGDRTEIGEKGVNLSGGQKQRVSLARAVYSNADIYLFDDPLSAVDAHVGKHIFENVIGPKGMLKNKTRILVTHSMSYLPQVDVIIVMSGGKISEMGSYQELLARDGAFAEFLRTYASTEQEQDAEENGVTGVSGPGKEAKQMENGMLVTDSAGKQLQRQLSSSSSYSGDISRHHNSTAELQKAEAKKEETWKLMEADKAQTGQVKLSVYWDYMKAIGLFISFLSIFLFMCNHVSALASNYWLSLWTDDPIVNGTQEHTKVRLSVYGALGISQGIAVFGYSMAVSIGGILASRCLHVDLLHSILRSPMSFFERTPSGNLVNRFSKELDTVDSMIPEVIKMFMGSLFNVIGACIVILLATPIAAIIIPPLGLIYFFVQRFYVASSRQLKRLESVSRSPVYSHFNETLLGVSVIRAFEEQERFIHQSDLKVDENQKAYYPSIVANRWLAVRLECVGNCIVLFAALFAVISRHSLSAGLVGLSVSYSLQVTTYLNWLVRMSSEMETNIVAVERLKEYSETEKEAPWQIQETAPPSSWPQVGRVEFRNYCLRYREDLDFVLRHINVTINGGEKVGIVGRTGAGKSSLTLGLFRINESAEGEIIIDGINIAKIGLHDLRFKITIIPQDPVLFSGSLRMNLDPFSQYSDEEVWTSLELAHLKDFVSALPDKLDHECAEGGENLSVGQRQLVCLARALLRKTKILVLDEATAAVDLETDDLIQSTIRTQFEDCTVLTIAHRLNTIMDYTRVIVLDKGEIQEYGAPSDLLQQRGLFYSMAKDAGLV

Row | Structure (SMILES) | Activity [1] | Activity [2]
1 | CO[C@H]1/C=C/O[C@@]2(C)Oc3c(C)c(O)c4c(O)c(c(/C=N/N5CCN(C)CC5)c(O)c4c3C2=O)NC(=O)/C(C)=C\C=C\[C@H](C)[C@H](O)[C@@H](C)[C@@H](O)[C@@H](C)[C@H](OC(C)=O)[C@@H]1C [RIFAMPIN] | 110% | 
2 | CO[C@H]1/C=C/O[C@@]2(C)Oc3c(C)c(O)c4c(O)c(cc(O)c4c3C2=O)NC(=O)/C(C)=C\C=C\[C@H](C)[C@H](O)[C@@H](C)[C@@H](O)[C@@H](C)[C@H](OC(C)=O)[C@@H]1C [RIFAMYCIN] |  | 110%

From ChEMBL document CHEMBL2074559, “Inhibition of multidrug resistance-associated protein (MRP) activity by rifampicin in human multidrug-resistant lung tumor cells” (Cancer Lett, 1999)
